Laboratory results reported in US20240238424A1, “HETEROBIFUNCTIONAL COMPOUNDS AND METHODS OF TREATING DISEASE” (Halda Therapeutics OpCo, Inc., priority 2021, published 2024).

Legend:
GSPT1 = biological target: T1, GSPT1 (Homo sapiens, UniProt P15170+Q96SW2); test: GSPT1 HiBit degradation assay; assay type: cell-based; settings: HEK293 LgBiT cells expressing GSPT1_HiBiT, luminescence after 6 hours
T1 construct: host or cells: HEK293 LgBiT cell line
Source text: Promega developed a HEK293 cell line that constitutively expresses LgBiT protein and GSPT1_HiBiT fusion protein. When both proteins are present, the HiBiT portion of the fusion protein combines with LgBiT protein to form a functional luciferase enzyme. Endurazine, a cell permeable small molecule, is converted by cellular esterases into furimazine, which the luciferase enzyme uses as a substrate to generate luminescence. When GSPT1 is degraded, the HiBit is also degraded. This prevents formation of fully functional luciferase, leading to a loss in luminescence. GSPT1 degradation therefore correlates with a decrease in luminescence and can be measured continuously over time. The concentration of compound at which 50% GSPT1 degradation occurs (DC50) was calculated using this system.
• HEK293 LgBiT Cell line (Promega Custom) • Endurazine Substrate (Promega Cat. #N2570) • DMEM (Gibco Cat. #11995) • Penicillin/Streptomycin (Gibco Cat. #15140-122) • Heat Inactivated Fetal Bovine Serum (Gibco Cat. #A38400-01) • Hygromycin B (Gibco Cat. #10-687-010) • 384 Well TC Treated White Microplate (Perkin Elmer Cat. #6007680)
HEK293 LgBiT cells were cultured in DMEM Media supplemented with 10% FBS, 5% Pen/Strep, 200 μg/ml hygromycin and stored in an incubator set at 37° C. and 5% CO2. 18-24 hours prior to compound treatment, HEK293 LgBiT cells were seeded at 1000 cells/well in a 384-well microplate in 25 μl complete media. The plate was spun at 300 g for 30 seconds and stored in the incubator overnight. The next day, compounds were titrated in DMSO and added to media supplemented with endurazine substrate. A 25 ul aliquot of 2× compound/endurazine in media were then added to the 384-well microplate with seeded cells. (Endurazine was used at a final concentration of 0.5×). The plate was spun at 300 g for 30 seconds and stored in the incubator. After 6 hours the plate was read on a Perkin Elmer MultiMode Plate Reader Envision 2105 to measure luminescence signal.

HeLa KRas G12C cells = test: Cellular growth inhibition assay (CTG), HeLa KRas G12C cells; assay type: cell-based; settings: Homo sapiens, CellTiter-Glo 2.0, day-5
Procedure: Cells were seeded in Poly-D-lysine-treated 384-well white plates, with 25 μL cell suspension at 250 cells/well for continuous treatments, and 1000 cells/well for washout treatments. Plates were spun at 300×g for 3 minutes, and cells were cultured at 37° C. with 5% CO2 in a humidified tissue culture incubator.
After 24 hours, the test compounds were diluted with cell culture medium in 96 deep well plates. DMSO was used as a negative control. A 25 μL aliquot of compound-containing medium was added in each well, at a final top concentration of 10 μM or 30 μM test compound, with 3-fold dilutions. For washout assays, after 4 hours, cell medium with compound was removed, and the cells were washed with 75p L fresh medium. Plates were then spun at 300×g for 3 minutes and replaced with 50 μL fresh medium in each well. Plates were then spun at 300×g for 3 minutes again and cultured at 37° C. with 5% CO2.
At day-0 and day-5 of compound treatments, cell viability was quantified with CellTiter-Glo 2.0 (Promega). After equilibrating cell plates at room temperature for 30 minutes, 25 μL CellTiter-Glo 2.0 reagent was dispensed into each well (on top of 50 μL of cell culture). Plates were mixed on a shaker for 2 minutes at 500 rpm, followed by a 10-minute incubation at room temperature. Luminescence readings were measured with an EnVision Plate Reader. Data was normalized to DMSO treated day-0 cell wells. A four-parameter non-linear regression curve fit was applied to dose-response data in Prism to determine the half maximal growth inhibitory concentration (GI50) of each compound.

T1 sequence (P15170 whole entry): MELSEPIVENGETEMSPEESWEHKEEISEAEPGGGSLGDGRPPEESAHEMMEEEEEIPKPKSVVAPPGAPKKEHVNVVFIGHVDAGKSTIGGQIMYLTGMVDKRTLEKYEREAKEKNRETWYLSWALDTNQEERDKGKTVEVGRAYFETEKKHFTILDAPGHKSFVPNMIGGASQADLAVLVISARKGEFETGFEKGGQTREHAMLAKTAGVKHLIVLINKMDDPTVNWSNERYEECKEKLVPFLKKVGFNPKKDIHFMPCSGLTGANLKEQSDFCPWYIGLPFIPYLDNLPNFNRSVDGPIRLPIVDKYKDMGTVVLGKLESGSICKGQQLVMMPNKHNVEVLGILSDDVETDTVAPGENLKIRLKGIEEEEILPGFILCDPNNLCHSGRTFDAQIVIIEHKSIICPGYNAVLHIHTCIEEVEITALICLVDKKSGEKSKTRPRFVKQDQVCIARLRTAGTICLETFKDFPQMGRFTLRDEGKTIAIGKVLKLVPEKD
T1 sequence (Q96SW2 whole entry): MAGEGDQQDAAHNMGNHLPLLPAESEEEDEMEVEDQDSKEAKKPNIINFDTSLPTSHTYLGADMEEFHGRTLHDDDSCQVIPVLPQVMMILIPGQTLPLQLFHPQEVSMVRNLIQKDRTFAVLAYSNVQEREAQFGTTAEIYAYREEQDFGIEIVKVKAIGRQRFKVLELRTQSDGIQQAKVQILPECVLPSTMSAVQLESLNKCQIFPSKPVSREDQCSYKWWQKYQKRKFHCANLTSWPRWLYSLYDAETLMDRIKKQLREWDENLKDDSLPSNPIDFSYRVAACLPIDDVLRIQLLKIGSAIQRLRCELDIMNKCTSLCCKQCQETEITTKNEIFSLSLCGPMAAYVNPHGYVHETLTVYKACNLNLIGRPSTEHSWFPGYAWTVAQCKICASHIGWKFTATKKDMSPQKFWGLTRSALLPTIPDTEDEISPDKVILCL
T1 sequence (Q16531 whole entry partner): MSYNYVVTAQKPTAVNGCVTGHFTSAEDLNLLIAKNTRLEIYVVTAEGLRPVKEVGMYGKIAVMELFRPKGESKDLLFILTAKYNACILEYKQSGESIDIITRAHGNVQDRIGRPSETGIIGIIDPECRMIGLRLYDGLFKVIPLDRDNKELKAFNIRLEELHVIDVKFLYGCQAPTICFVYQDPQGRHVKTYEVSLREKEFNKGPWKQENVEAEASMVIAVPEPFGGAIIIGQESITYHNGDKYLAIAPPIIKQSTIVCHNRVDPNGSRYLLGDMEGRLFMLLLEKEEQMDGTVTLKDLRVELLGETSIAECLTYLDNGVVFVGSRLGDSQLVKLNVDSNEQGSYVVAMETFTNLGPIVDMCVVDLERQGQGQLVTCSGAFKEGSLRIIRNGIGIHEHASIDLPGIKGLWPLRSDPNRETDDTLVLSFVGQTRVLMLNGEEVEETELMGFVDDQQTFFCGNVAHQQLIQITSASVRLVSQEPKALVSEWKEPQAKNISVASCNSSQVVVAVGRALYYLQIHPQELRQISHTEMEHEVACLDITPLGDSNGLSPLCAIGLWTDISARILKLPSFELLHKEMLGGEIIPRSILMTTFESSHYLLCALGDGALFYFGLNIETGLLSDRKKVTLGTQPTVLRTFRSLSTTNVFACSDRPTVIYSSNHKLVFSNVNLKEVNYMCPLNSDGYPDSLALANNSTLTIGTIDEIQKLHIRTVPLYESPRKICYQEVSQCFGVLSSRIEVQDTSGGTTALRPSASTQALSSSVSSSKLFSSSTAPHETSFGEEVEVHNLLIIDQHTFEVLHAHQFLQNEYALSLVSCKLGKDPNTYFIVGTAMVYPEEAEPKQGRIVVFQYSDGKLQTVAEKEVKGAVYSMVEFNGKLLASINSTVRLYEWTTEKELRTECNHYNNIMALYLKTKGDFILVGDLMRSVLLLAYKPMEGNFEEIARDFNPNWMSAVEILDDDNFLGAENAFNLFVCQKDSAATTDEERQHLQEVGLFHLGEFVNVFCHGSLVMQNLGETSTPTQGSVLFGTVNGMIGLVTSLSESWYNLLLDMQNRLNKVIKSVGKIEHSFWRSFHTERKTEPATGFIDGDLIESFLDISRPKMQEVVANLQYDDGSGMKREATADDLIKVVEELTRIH

Molecule `C=C(F)C(=O)N1CCN(c2nc(OC[C@@H]3CCCN3CCCCCCCCc3cc(Cl)cc(NC(=O)NCc4ccc5c(c4)CN(C4CCC(=O)NC4=O)C5=O)c3)nc3c2CCN(c2cccc4cccc(Cl)c24)C3)C[C@@H]1CC#N` (stereo partly drawn) [Compound I-1, 1-[3-chloro-5-[8-[(2S)-2-[[7-(8-chloro-1-naphthyl)-4-[(3S)-3-(cyanomethyl)-4-(2-fluoroprop-2-enoyl)piperazin-1-yl]-6,8-dihydro-5H-pyrido[3,4-d]pyrimidin-2-yl]oxymethyl]pyrrolidin-1-yl]octyl]phenyl]-3-[[2-(2,6-dioxo-3-piperidyl)-1-oxo-isoindolin-5-yl]methyl]urea] has a DC50 (GSPT1; Table 3) of 0.25 to 5 µM and a GI50 (HeLa KRas G12C cells) of 1 to 3 µM.

Molecule `C=C(F)C(=O)N1CCN(c2nc(OC[C@@H]3CCCN3CCOCCOCCOCCOCCOCCOCCc3cc(Cl)cc(NC(=O)NCc4ccc5c(c4)CN(C4CCC(=O)NC4=O)C5=O)c3)nc3c2CCN(c2cccc4cccc(Cl)c24)C3)C[C@@H]1CC#N` (stereo partly drawn) [Compound I-2, 1-(3-chloro-5-(20-((S)-2-(((7-(8-chloronaphthalen-1-yl)-4-((S)-3-(cyanomethyl)-4-(2-fluoroacryloyl)piperazin-1-yl)-5,6,7,8-tetrahydropyrido[3,4-d]pyrimidin-2-yl)oxy)methyl)pyrrolidin-1-yl)-3,6,9,12,15,18-hexaoxaicosyl)phenyl)-3-((2-(2,6-dioxopiperidin-3-yl)-1-oxoisoindolin-5-yl)methyl)urea] has a DC50 (GSPT1; Table 3) of 5 to 10 µM and a GI50 (HeLa KRas G12C cells) greater than 10 µM.

`C=C(F)C(=O)N1CCN(c2nc(OC[C@@H]3CCCN3CCCCCCCCNc3cccc4c3CN(C3CCC(=O)NC3=O)C4=O)nc3c2CCN(c2cccc4cccc(Cl)c24)C3)C[C@@H]1CC#N` (stereo partly drawn) [Compound I-3, 2-((2S)-4-(7-(8-chloronaphthalen-1-yl)-2-(((2S)-1-(8-((2-(2,6-dioxopiperidin-3-yl)-1-oxoisoindolin-4-yl)amino)octyl)pyrrolidin-2-yl)methoxy)-5,6,7,8-tetrahydropyrido[3,4-d]pyrimidin-4-yl)-1-(2-fluoroacryloyl)piperazin-2-yl)acetonitrile] gave a DC50 (GSPT1; Table 3) greater than 10 µM and a GI50 (HeLa KRas G12C cells) of 3 to 10 µM.

With `C=C(F)C(=O)N1CCN(c2nc(OC[C@@H]3CCCN3CCCCCCCCc3cccc4c3CN(C3CCC(=O)NC3=O)C4=O)nc3c2CCN(c2cccc4cccc(Cl)c24)C3)C[C@@H]1CC#N` (stereo partly drawn) [Compound I-4, 2-[(2S)-4-[7-(8-chloro-1-naphthyl)-2-[[(2S)-1-[8-[2-(2,6-dioxo-3-piperidyl)-1-oxo-isoindolin-4-yl]octyl]pyrrolidin-2-yl]methoxy]-6,8-dihydro-5H-pyrido[3,4-d]pyrimidin-4-yl]-1-(2-fluoroprop-2-enoyl)piperazin-2-yl]acetonitrile] the DC50 (GSPT1; Table 3) was greater than 10 µM and the GI50 (HeLa KRas G12C cells) was 3 to 10 µM.

`C=CC(=O)N1CCN(c2nc(NCCCCCCCCc3cc(Cl)cc(NC(=O)NCc4ccc5c(c4)CN(C4CCC(=O)NC4=O)C5=O)c3)nc3c(F)c(-c4cc(O)cc5ccccc45)c(Cl)cc23)CC1` (stereo not shown) [Compound I-5, 1-[3-chloro-5-[8-[[6-chloro-8-fluoro-7-(3-hydroxy-1-naphthyl)-4-(4-prop-2-enoylpiperazin-1-yl)quinazolin-2-yl]amino]octyl]phenyl]-3-[[2-(2,6-dioxo-3-piperidyl)-1-oxo-isoindolin-5-yl]methyl]urea] gave a DC50 (GSPT1; Table 3) of less than 0.25 µM and a GI50 (HeLa KRas G12C cells) greater than 10 µM.

`Cc1c(NC(=O)c2ccc(C3CC3)cc2F)cc(F)cc1-c1ncnc(N)c1OCCN(C)C(=O)/C=C/CN(C)CCOCCOCCOCCOCCOCCOCCOCCOCCOCCCCCc1cc(Cl)cc(NC(=O)NCc2ccc3c(c2)CN(C2CCC(=O)NC2=O)C3=O)c1` (stereo not shown) [Compound I-129] was tested, and the DC50 (GSPT1; Table 3A) was 0.25 to 5 µM.

`C=C(F)C(=O)N1CCN(c2nc(OC[C@@H]3CCCN3CCCOCCOCCOCCOCCOCCCCCc3cc(Cl)cc(NC(=O)NCc4ccc5c(c4)CN(C4CCC(=O)NC4=O)C5=O)c3)nc3c2CCN(c2cccc4cccc(Cl)c24)C3)C[C@@H]1CC#N` (stereo partly shown) [Compound I-133] showed a DC50 (GSPT1; Table 3A) of 0.25 to 5 µM.

Work on `CN(CCOCCOCCOCCOCCOCCOCCOCCOCCOCCCCCc1cc(Cl)cc(NC(=O)NCc2ccc3c(c2)CN(C2CCC(=O)NC2=O)C3=O)c1)C(=O)CO[C@H]1CC[C@H]2[C@@H]3CC[C@H]4CC(=O)CC[C@]4(C)[C@H]3CC[C@]12C` (stereo partly shown) [Compound I-135] yielded a DC50 (GSPT1; Table 3A) of 0.25 to 5 µM.

Molecule `C=C(F)C(=O)N1CCN(c2nc(OC[C@@H]3C[C@@H](OCC(=O)N(C)CCOCCOCCOCCOCCOCCOCCOCCCCCc4cc(Cl)cc(NC(=O)NCc5ccc6c(c5)CN(C5CCC(=O)NC5=O)C6=O)c4)CN3C)nc3c2CCN(c2cccc4cccc(Cl)c24)C3)C[C@@H]1CC#N` (stereo partly shown) [Compound I-136] has a DC50 (GSPT1; Table 3A) of 0.25 to 5 µM.

Molecule `C=CC(=O)Nc1cc(Nc2nccc(-c3cn(C)c4ccccc34)n2)c(OC)cc1N(C)CCN(C)CCOCCOCCOCCOCCOCCOCCOCCCCCc1cc(Cl)cc(NC(=O)NCc2ccc3c(c2)CN(C2CCC(=O)NC2=O)C3=O)c1` (stereo not shown) [Compound I-139] has a DC50 (GSPT1; Table 3A) of 0.25 to 5 µM.

`C=C(F)C(=O)N1CCN(c2nc(OC[C@@H]3CCCN3CCCOCCOCCOCCOCCOCCCCCc3ccc(Cl)cc3NC(=O)NCc3ccc4c(c3)CN(C3CCC(=O)NC3=O)C4=O)nc3c2CCN(c2cccc4cccc(Cl)c24)C3)C[C@@H]1CC#N` (stereo partly shown) [Compound I-140] gave a DC50 (GSPT1; Table 3A) of 0.25 to 5 µM.

Work on `COc1cc(N2CCN(C(=O)COCCOCCOCCOCCOCCOCCOCCOCCOCCCCCc3cc(Cl)cc(NC(=O)NCc4ccc5c(c4)CN(C4CCC(=O)NC4=O)C5=O)c3)CC2)ccc1Nc1ncc(Cl)c(Nc2ccccc2P(C)(C)=O)n1` (stereo not shown) [Compound I-141] yielded a DC50 (GSPT1; Table 3A) of 0.25 to 5 µM.

`Cc1c(NC(=O)c2ccc(C3CC3)cc2F)cc(F)cc1-c1ncnc(N)c1OCCN(C)C(=O)/C=C/CN(C)CCOCCOCCOCCOCCOCCOCCOCCOCCOCCOCCOCCCCCc1cc(Cl)cc(NC(=O)NCc2ccc3c(c2)CN(C2CCC(=O)NC2=O)C3=O)c1` (stereo not shown) [Compound I-143] was tested, and the DC50 (GSPT1; Table 3A) was 0.25 to 5 µM.

For `C=CC(=O)N1CCN(c2nc(=O)n(-c3c(C)cc(OCCOCCOCCOCCOCCOCCCCCc4cc(Cl)cc(NC(=O)NCc5ccc6c(c5)CN(C5CCC(=O)NC5=O)C6=O)c4)nc3C(C)C)c3nc(-c4c(O)cccc4F)c(F)cc23)[C@@H](C)C1` (stereo partly shown) [Compound I-149], the DC50 (GSPT1; Table 3A) was 0.25 to 5 µM.

`C=CC(=O)N1CCN(c2nc(=O)n(-c3c(C)cc(OCCOCCOCCOCCOCCOCCOCCOCCCCCc4cc(Cl)cc(NC(=O)NCc5ccc6c(c5)CN(C5CCC(=O)NC5=O)C6=O)c4)nc3C(C)C)c3nc(-c4c(O)cccc4F)c(F)cc23)[C@@H](C)C1` (stereo partly shown) [Compound I-153] showed a DC50 (GSPT1; Table 3A) of 0.25 to 5 µM.

For `C=CC(=O)N1CCN(c2nc(=O)n(-c3c(C)cc(OCCOCCOCCOCCOCCOCCOCCOCCOCCOCCCCCc4cc(Cl)cc(NC(=O)NCc5ccc6c(c5)CN(C5CCC(=O)NC5=O)C6=O)c4)nc3C(C)C)c3nc(-c4c(O)cccc4F)c(F)cc23)[C@@H](C)C1` (stereo partly shown) [Compound I-154], the DC50 (GSPT1; Table 3A) was 0.25 to 5 µM.

With `C=C(F)C(=O)N1CCN(c2nc(OC[C@@H]3CCCN3CCCOCCOCCOCCOCCOCCOCCOCCOCCOCCCCCc3cccc(NC(=O)NCc4ccc5c(c4)CN(C4CCC(=O)NC4=O)C5=O)n3)nc3c2CCN(c2cccc4cccc(Cl)c24)C3)C[C@@H]1CC#N` (stereo partly shown) [Compound I-156] the DC50 (GSPT1; Table 3A) was 0.25 to 5 µM.

In the case of `CN(C/C=C/C(=O)N1CCN(c2nc(OC[C@@H]3CCCN3C)nc3c2CCN(c2cccc4cccc(Cl)c24)C3)C[C@@H]1CC#N)CCOCCOCCOCCOCCOCCOCCOCCOCCOCCCCCc1cc(Cl)cc(NC(=O)NCc2ccc3c(c2)CN(C2CCC(=O)NC2=O)C3=O)c1` (stereo partly shown) [Compound I-162], the DC50 (GSPT1; Table 3A) was 0.25 to 5 µM.

`CN(C/C=C/C(=O)N1CCN(c2nc(OC[C@@H]3CCCN3C)nc3c2CCN(c2cccc4cccc(Cl)c24)C3)C[C@@H]1CC#N)CCOCCOCCOCCOCCOCCOCCOCCOCCOCCCCCc1cc(Cl)cc(NC(=O)NCc2ccc3c(c2)CN(C2CCC(=O)N(C)C2=O)C3=O)c1` (stereo partly shown) [Compound I-164] gave a DC50 (GSPT1; Table 3A) of 5 to 10 µM.

With `C=CC(=O)N1CCN(c2nc(=O)n(-c3c(C)cc(OCCOCCOCCOCCOCCOCCOCCOCCOCCOCCOCCOCCCCCc4cc(Cl)cc(NC(=O)NCc5ccc6c(c5)CN(C5CCC(=O)NC5=O)C6=O)c4)nc3C(C)C)c3nc(-c4c(O)cccc4F)c(F)cc23)[C@@H](C)C1` (stereo partly shown) [Compound I-165] the DC50 (GSPT1; Table 3A) was 0.25 to 5 µM.
